# Measured values from patent publication US4382871A, “Detergent compositions” (Lever Brothers Company, priority 1980, dated 1983).
# Tests used:
# [1] = acute oral toxicity (LD50) in Webster mice; format: in vivo; details: mouse, in vivo, read-out: LD50 (dosage which is lethal for 50% of the mice)
# Text: (§1) As stated above, a particular advantage of the builders of the present invention over the salts of unsubstituted oxydiacetic acid, is their lower toxicity. For example, using Webster mice, the acute oral toxicity data, (LD50), i.e., the dosage in grams per kilogram of body weight which is lethal for 50% of the mice, for two of the preferred embodiments compared to disodium oxydiacetate are as follows: […]
# Webster mice = assay: acute oral toxicity (LD50) in Webster mice; format: in vivo; details: from LD50
# Text: as §1
# [2] = if accidentally swallowed; cited from earlier work
Molecule,LD50 [1] [mg/kg],Remarks (toxicity classification) (Webster mice),emetic properties [2]
O=C([O-])COCC(=O)[O-].[Na+].[Na+] [reference compound],2850,slightly toxic,
CC(OCC(=O)[O-])C(=O)[O-].[Na+].[Na+] (stereo not shown),> 5000,non-toxic,
trisodium polyphosphate,,,emetic properties
CC(OC(C)C(=O)[O-])C(=O)[O-].[Na+].[Na+] (stereo not shown),> 5000,non-toxic,
